Measurements from BindingDB's records for doi:10.1016/0922-4106(95)90037-3 (Universit&Eacute, 1995).
Values joined by “and” are separate entries in the source; they are usually repeats but may differ in a detail not shown here. Equal values may be shown once. Non-standard residues stand in square brackets, D forms with d. Residues, ends and D or L forms follow the SMILES beside them. ξ: configuration not given here. Ile(3ξ) = CCC(C)[C@H](N)C(=O)O

Molecular target: T1, Pituitary adenylate cyclase-activating polypeptide (Rattus norvegicus, UniProt P13589)
T1 sequence (P13589 whole entry): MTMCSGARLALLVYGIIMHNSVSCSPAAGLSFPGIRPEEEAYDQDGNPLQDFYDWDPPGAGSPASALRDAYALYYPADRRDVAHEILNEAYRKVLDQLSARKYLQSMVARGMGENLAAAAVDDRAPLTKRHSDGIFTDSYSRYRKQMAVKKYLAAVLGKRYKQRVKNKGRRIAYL

| SMILES | Ki |
| --- | --- |
| CSCC[C@H](NC(=O)[C@H](CCC(N)=O)NC(=O)[C@H](CCCCN)NC(=O)[C@H](CCCNC(=N)N)NC(=O)[C@H](Cc1ccc(O)cc1)NC(=O)[C@H](CCCNC(=N)N)NC(=O)[C@H](CO)NC(=O)[C@H](Cc1ccc(O)cc1)NC(=O)[C@H](CO)NC(=O)[C@H](CC(=O)O)NC(=O)[C@@H](NC(=O)[C@@H](N)Cc1ccccc1)[C@@H](C)O)C(=O)N[C@@H](C)C(=O)N[C@H](C(=O)N[C@@H](CCCCN)C(=O)N[C@@H](CCCCN)C(=O)N[C@@H](Cc1ccc(O)cc1)C(=O)N[C@@H](CC(C)C)C(=O)N[C@@H](C)C(=O)N[C@@H](C)C(=O)N[C@H](C(=O)N[C@@H](CC(C)C)C(=O)NCC(=O)N[C@@H](CCCCN)C(=O)N[C@@H](CCCNC(=N)N)C(=O)N[C@@H](Cc1ccc(O)cc1)C(=O)N[C@@H](CCCCN)C(=O)N[C@@H](CCC(N)=O)C(=O)N[C@@H](CCCNC(=N)N)C(=O)N[C@H](C(=O)N[C@@H](CCCCN)C(=O)N[C@@H](CC(N)=O)C(=O)N[C@@H](CCCCN)C(N)=O)C(C)C)C(C)C)C(C)C | 8 nM and 10 nM |
| CC[C@H](C)[C@H](NC(=O)[C@H](CO)NC(=O)[C@H](CC(N)=O)NC(=O)[C@H](CC(C)C)NC(=O)[C@H](Cc1ccc(O)cc1)NC(=O)[C@H](CCCCN)NC(=O)[C@H](CCCCN)NC(=O)[C@@H](NC(=O)[C@H](C)NC(=O)[C@H](CCSC)NC(=O)[C@H](CCC(N)=O)NC(=O)[C@H](CCCCN)NC(=O)[C@H](CCCN=C(N)N)NC(=O)[C@H](CC(C)C)NC(=O)[C@H](CCCN=C(N)N)NC(=O)[C@@H](NC(=O)[C@H](Cc1ccc(O)cc1)NC(=O)[C@H](CC(N)=O)NC(=O)[C@H](CC(=O)O)NC(=O)[C@@H](NC(=O)[C@H](Cc1ccccc1)NC(=O)[C@@H](NC(=O)[C@H](C)NC(=O)[C@H](CC(=O)O)NC(=O)[C@H](CO)NC(=O)[C@@H](N)Cc1cnc[nH]1)C(C)C)[C@@H](C)O)[C@@H](C)O)C(C)C)C(=O)N[C@@H](CC(C)C)C(=O)N[C@@H](CC(N)=O)C(=O)O [CAS_37221-79-7] | 80 nM |
| [C][C][C]([C])[C@H]([N]C(=O)[C][N]C(=O)[C@H]([C][C]C([O])=O)[N]C(=O)[C@@H]([N])[C][O])C(=O)[N][C@@H]([C]c1ccccc1)C(=O)[N][C@H](C(=O)[N][C@@H]([C]C([O])=O)C(=O)[N][C@@H]([C][O])C(=O)[N][C@@H]([C]c1ccc([O])cc1)C(=O)[N][C@@H]([C][O])C(=O)[N][C@@H]([C][C][C]N=C([N])[N])C(=O)[N][C@@H]([C]c1ccc([O])cc1)C(=O)[N][C@@H]([C][C][C]N=C([N])[N])C(=O)[N][C@@H]([C][C][C][C][N])C(=O)[N][C@@H]([C][C]C([N])=O)C(=O)[N][C@@H]([C][C]S[C])C(=O)[N][C@@H]([C])C(=O)[N][C@@H]([C]([C])[C])C(=O)[N][C@@H]([C][C][C][C][N])C(=O)[N][C@@H]([C][C][C][C][N])C(=O)[N][C@@H]([C]c1ccc([O])cc1)C(=O)[N][C@@H]([C][C]([C])[C])C(=O)[N][C@@H]([C])C(=O)[N][C@@H]([C])C(=O)[N][C@@H]([C]([C])[C])C(=O)[N][C@@H]([C][C]([C])[C])C([N])=O)[C@@H]([C])[O] [PACAP(2-27)] | 5 nM |
| CCC(C)[C@H](NC(=O)CNC(=O)[C@H](CC(=O)O)NC(=O)[C@@H](N)CO)C(=O)N[C@@H](Cc1ccccc1)C(=O)N[C@H](C(=O)N[C@@H](CC(=O)O)C(=O)N[C@@H](CO)C(=O)N[C@@H](Cc1ccc(O)cc1)C(=O)N[C@@H](CO)C(=O)N[C@@H](CCCN=C(N)N)C(=O)N[C@@H](Cc1ccc(O)cc1)C(=O)N[C@@H](CCCN=C(N)N)C(=O)N[C@@H](CCCCN)C(=O)N[C@@H](CCC(N)=O)C(=O)N[C@@H](CCSC)C(=O)N[C@@H](C)C(=O)N[C@H](C(=O)N[C@@H](CCCCN)C(=O)N[C@@H](CCCCN)C(=O)N[C@@H](Cc1ccc(O)cc1)C(=O)N[C@@H](CC(C)C)C(=O)N[C@@H](C)C(=O)N[C@@H](C)C(=O)N[C@H](C(=O)N[C@@H](CC(C)C)C(=O)NCC(=O)N[C@@H](CCCCN)C(=O)N[C@@H](CCCN=C(N)N)C(=O)N[C@@H](Cc1ccc(O)cc1)C(=O)N[C@@H](CCCCN)C(=O)N[C@@H](CCC(N)=O)C(=O)N[C@@H](CCCN=C(N)N)C(=O)N[C@H](C(=O)N[C@@H](CCCCN)C(=O)N[C@@H](CC(N)=O)C(=O)N[C@@H](CCCCN)C(N)=O)C(C)C)C(C)C)C(C)C)[C@@H](C)O (stereo partly drawn) [PACAP(2-38)] (H-SDG[Ile(3ξ)]FTDSYSRYRKQMAVKKYLAAVLGKRYKQRVKNK-NH2) | 5 nM and 8 nM |
| CCC(C)[C@H](NC(=O)CNC(=O)[C@@H](N)CC(=O)O)C(=O)N[C@@H](Cc1ccccc1)C(=O)N[C@H](C(=O)N[C@@H](CC(=O)O)C(=O)N[C@@H](CO)C(=O)N[C@@H](Cc1ccc(O)cc1)C(=O)N[C@@H](CO)C(=O)N[C@@H](CCCN=C(N)N)C(=O)N[C@@H](Cc1ccc(O)cc1)C(=O)N[C@@H](CCCN=C(N)N)C(=O)N[C@@H](CCCCN)C(=O)N[C@@H](CCC(N)=O)C(=O)N[C@@H](CCSC)C(=O)N[C@@H](C)C(=O)N[C@H](C(=O)N[C@@H](CCCCN)C(=O)N[C@@H](CCCCN)C(=O)N[C@@H](Cc1ccc(O)cc1)C(=O)N[C@@H](CC(C)C)C(=O)N[C@@H](C)C(=O)N[C@@H](C)C(=O)N[C@H](C(=O)N[C@@H](CC(C)C)C(=O)NCC(=O)N[C@@H](CCCCN)C(=O)N[C@@H](CCCN=C(N)N)C(=O)N[C@@H](Cc1ccc(O)cc1)C(=O)N[C@@H](CCCCN)C(=O)N[C@@H](CCC(N)=O)C(=O)N[C@@H](CCCN=C(N)N)C(=O)N[C@H](C(=O)N[C@@H](CCCCN)C(=O)N[C@@H](CC(N)=O)C(=O)N[C@@H](CCCCN)C(N)=O)C(C)C)C(C)C)C(C)C)[C@@H](C)O (stereo partly drawn) [PACAP(3-38)] (H-DG[Ile(3ξ)]FTDSYSRYRKQMAVKKYLAAVLGKRYKQRVKNK-NH2) | 300 nM |
| CC[C@H](C)[C@H](NC(=O)CNC(=O)[C@H](CC(=O)O)NC(=O)[C@H](CO)NC(=O)[C@@H](N)Cc1cnc[nH]1)C(=O)N[C@@H](Cc1ccccc1)C(=O)N[C@H](C(=O)N[C@@H](CC(=O)O)C(=O)N[C@@H](CO)C(=O)N[C@@H](Cc1ccc(O)cc1)C(=O)N[C@@H](CO)C(=O)N[C@@H](CCCNC(=N)N)C(=O)N[C@@H](Cc1ccc(O)cc1)C(=O)N[C@@H](CCCNC(=N)N)C(=O)N[C@@H](CCCCN)C(=O)N[C@@H](CCC(N)=O)C(=O)N[C@@H](CCSC)C(=O)N[C@@H](C)C(=O)N[C@H](C(=O)N[C@@H](CCCCN)C(=O)N[C@@H](CCCCN)C(=O)N[C@@H](Cc1ccc(O)cc1)C(=O)N[C@@H](CC(C)C)C(=O)N[C@@H](C)C(=O)N[C@@H](C)C(=O)N[C@H](C(=O)N[C@@H](CC(C)C)C(=O)NCC(=O)N[C@@H](CCCCN)C(=O)N[C@@H](CCCNC(=N)N)C(=O)N[C@@H](Cc1ccc(O)cc1)C(=O)N[C@@H](CCCCN)C(=O)N[C@@H](CCC(N)=O)C(=O)N[C@@H](CCCNC(=N)N)C(=O)N[C@H](C(=O)N[C@@H](CCCCN)C(=O)N[C@@H](CC(N)=O)C(=O)N[C@@H](CCCCN)C(N)=O)C(C)C)C(C)C)C(C)C)[C@@H](C)O [PACAP] | 0.1 nM |

Further lines, results first:

| Ki | SMILES |
| --- | --- |
| 0.08 nM | CC[C@H](C)[C@H](NC(=O)CNC(=O)[C@H](CCC(=O)O)NC(=O)[C@H](CO)NC(=O)[C@@H](N)Cc1cnc[nH]1)C(=O)N[C@@H](Cc1ccccc1)C(=O)N[C@H](C(=O)N[C@@H](CC(=O)O)C(=O)N[C@@H](CO)C(=O)N[C@@H](Cc1ccc(O)cc1)C(=O)N[C@@H](CO)C(=O)N[C@@H](CCCNC(=N)N)C(=O)N[C@@H](Cc1ccc(O)cc1)C(=O)N[C@@H](CCCNC(=N)N)C(=O)N[C@@H](CCCCN)C(=O)N[C@@H](CCC(N)=O)C(=O)N[C@@H](CCSC)C(=O)N[C@@H](C)C(=O)N[C@H](C(=O)N[C@@H](CCCCN)C(=O)N[C@@H](CCCCN)C(=O)N[C@@H](Cc1ccc(O)cc1)C(=O)N[C@@H](CC(C)C)C(=O)N[C@@H](C)C(=O)N[C@@H](C)C(=O)N[C@H](C(=O)N[C@@H](CC(C)C)C(N)=O)C(C)C)C(C)C)[C@@H](C)O [PACAP(1-27)] |
| 500 nM and 400 nM | CCC(C)[C@H](NC(=O)CNC(=O)[C@@H](N)CC(=O)O)C(=O)N[C@@H](Cc1ccccc1)C(=O)N[C@H](C(=O)N[C@@H](CC(=O)O)C(=O)N[C@@H](CO)C(=O)N[C@@H](Cc1ccc(O)cc1)C(=O)N[C@@H](CO)C(=O)N[C@@H](CCCN=C(N)N)C(=O)N[C@@H](Cc1ccc(O)cc1)C(=O)N[C@@H](CCCN=C(N)N)C(=O)N[C@@H](CCCCN)C(=O)N[C@@H](CCC(N)=O)C(=O)N[C@@H](CCSC)C(=O)N[C@@H](C)C(=O)N[C@H](C(=O)N[C@@H](CCCCN)C(=O)N[C@@H](CCCCN)C(=O)N[C@@H](Cc1ccc(O)cc1)C(=O)N[C@@H](CC(C)C)C(=O)N[C@@H](C)C(=O)N[C@@H](C)C(=O)N[C@H](C(=O)N[C@@H](CC(C)C)C(N)=O)C(C)C)C(C)C)[C@@H](C)O (stereo partly drawn) [PACAP(3-27)] (H-DG[Ile(3ξ)]FTDSYSRYRKQMAVKKYLAAVL-NH2) |
